Earlier results in patent publication US20060201863A1, “Sterilization water tank” (priority 2003, published 2006).

How the values were obtained:
[1] = system: Colitis germs; settings: against Colitis germs
[2] = system: Rice-straw bacillus; settings: against Rice-straw bacillus
[3] = system: Staphylococcus; settings: against Staphylococcus
[4] = system: Salmonella; settings: against Salmonella
[5] = system: Bacteria; settings: against Bacteria
[6] = system: Pneumonia bacillus; settings: against Pneumonia bacillus
[7] = system: Pseudomonas aeruginosa; settings: against Pseudomonas aeruginosa
[8] = system: Colitis germs; settings: silver in an ionized state

Row | Compound | MIC (minimum inhibitory concentration) [1] [ppm] | MIC (minimum inhibitory concentration) [2] [ppm] | MIC (minimum inhibitory concentration) [3] [ppm] | MIC (minimum inhibitory concentration) [4] [ppm] | MIC (minimum inhibitory concentration) [5] [ppm] | MIC (minimum inhibitory concentration) [6] [ppm] | MIC (minimum inhibitory concentration) [7] [ppm] | amount that may kill colitis germs [8]
1 | [Cu+2] [Copper ion, reference compound] | 200 | 400 | 400 | 400 | 400 | 200 | 400 | 
2 | [Ag+] [Silver ion] | 6.3 | 1.56 | 0.78 | 0.78 | 0.78 | 0.78 | 0.78 | about several ten
